# Data reported in publication PMC9663686, “Proline, hydroxyproline, and pyrrolidone carboxylic acid derivatives as highly efficient but reversible transdermal permeation enhancers” (Scientific Reports, 2022).
# How the values were obtained:
# [1] = system: 3T3 mouse fibroblasts; experiment: MTT cell viability assay, 3T3; type: cell-based; conditions: NIH3T3, 48-h incubation, mean ± SEM, read-out: IC50, 3T3 cells, MTT assay
# Source text: (§1) Next, the in vitro toxicities of the most promising enhancers Pro3 and Pro4, along with the parent Pro2, on spontaneously immortalized human keratinocytes (HaCaT) and Swiss albino mouse embryonic fibroblasts (3T3) were studied (Fig. 3). […] The cellular toxicities were further probed using the 3-(4,5-dimethylthiazol-2-yl)-2,5-diphenyltetrazolium bromide (MTT) uptake assay, based on the transformation of yellow MTT into purple formazan by mitochondrial reductases of living cells. The MTT assay also yielded toxicity values in tens of µM with trends to higher toxicity with a longer acyl chain length (thus also higher lipophilicity) of enhancers (Fig. 3).
# (§2) Cell viability was determined via 3-(4,5-dimethylthiazol-2-yl)-2,5-diphenyltetrazolium bromide (MTT) and neutral red (NR) uptake assays after 48-h incubation with the enhancers (see Supplementary data for details).
# (§3) Both cell lines were cultivated in Dulbecco’s modified Eagle’s medium (DMEM, Lonza, Basel, Switzerland) supplemented with 10% heat-inactivated fetal bovine serum (Merck, Darmstadt, Germany), 10 mM HEPES buffer (Merck, Darmstadt, Germany), and 1% penicillin/streptomycin solution (Lonza, Basel, Switzerland) in 75-cm^2 tissue culture flasks (TPP, Trasadingen, Switzerland) at 37°C in a humidified atmosphere of 5% CO2. Subconfluent cells were sub-cultured every 3-4 days.
# For toxicity studies, the stock-solutions of studied compounds were prepared in dimethyl sulfoxide (DMSO). […]
# After 48-h incubation with the studied enhancer, cell viability was determined via 3-(4,5-dimethylthiazol-2-yl)-2,5-diphenyltetrazolium bromide (MTT) uptake assay based on the transformation of yellow MTT into purple formazan by mitochondrial reductase activity of living cells. […] Afterward, the cell viability was assessed by optical density measurement using a Tecan Infinite 200 M plate reader (Tecan, Grödig, Austria) at λ = 570 nm.
# (§4) The viability of each experimental group was expressed as the percentage of the untreated controls incubated under the same conditions (100%).
# [2] = system: human skin; experiment: Diclofenac permeation through human skin in Franz diffusion cells with co-applied enhancer; type: in vitro ADME; conditions: for CDERMIS, diclofenac concentration in dermis / CEPIDERMIS, diclofenac concentration in epidermis: 1% enhancer co-applied with 3% DC in 60% PG, after 48 h permeation, mean ± SEM
# Description: Donor samples for reversibility and infrared studies contained 1% enhancer in 60% PG. All samples were thoroughly mixed, incubated at 32 °C for 24 h, and, if needed, carefully resuspended before applying on the skin. The effects of the studied enhancers on the solubility of model drugs were assessed as described previously.
# The permeation-enhancing potencies of the prepared compounds were evaluated on human skin in Franz diffusion cells. Human skin was slowly thawed, cut into 2 × 2 cm pieces, fixed in Teflon holders with 1-cm^2 circular permeation areas, and mounted into Franz cells epidermal side up. The acceptor compartment (15.9 ± 0.1 ml) was filled with phosphate-buffered saline at pH 7.4 with 0.005% gentamicin (PBS) and stirred at 32 °C throughout the experiment. The skin integrity was checked by electrical impedance (any skin sample with the impedance < 10 kΩ was excluded). Then, 100 µl of a donor sample (infinite dose) was applied to the skin and covered with a glass slide. Acceptor phase samples (300 µl) were collected at predetermined time intervals for 48 h, to reach steady-state and were replaced by the same volume of fresh PBS. […] The drug concentrations were measured by HPLC (see supplementary data).
# The flux of the model drug through the skin Jss (µg/cm^2/h) was calculated from the linear region of this plot. The enhancement ratio (ER) was calculated as the ratio of flux with and without an enhancer.
# After the permeation experiment, the cells were dismounted, the skin was carefully washed with PBS, and the permeation area of the skin (1 cm^2) was punched off. After heating the skin fragments to 80 °C for 1 min, the epidermis (E) was peeled off the dermis (D), individually weighed and extracted by 1 and 2 ml, respectively, of an extraction solvent (identical to the mobile phase for the drug HPLC analysis, see supplementary data) for 24 h. The drug concentration was measured by HPLC (see supplementary data).
# [3] = system: HaCaT spontaneously immortalized human keratinocytes; experiment: Neutral red (NR) uptake cell viability assay, HaCaT; type: cell-based; conditions: 48-h incubation, mean ± SEM, read-out: IC50, HaCaT cells, NR assay
# Source text: as §1, §2, §3
# For toxicity studies, the stock-solutions of studied compounds were prepared in dimethyl sulfoxide (DMSO). These stock samples were diluted to the required concentration by the cell culture medium immediately before adding them onto the cells. The amount of DMSO applied to the cells was kept under its intrinsic measurable toxicity limit (below 1 vol.%). […]
# Another approach used for the toxicity assessment was the neutral red (NR) uptake assay. […] The plates were shaken at rt for 30 min, and the optical density of the soluble NR was measured at λ = 540 nm using a Tecan Infinite 200 M plate reader.
# as §4
# [4] = 1% enhancer with 3% DC in 60% PG
Structure (SMILES),IC50 [1] [µM],"CDERMIS, diclofenac concentration in dermis [2] [µg/mg]","CEPIDERMIS, diclofenac concentration in epidermis [2] [µg/mg]",IC50 [3] [µM],"fold increase of DC retention in dermis over control [2, 4]","fold increase of DC retention in epidermis over control [2, 4] [fold]"
"CCCCCCCCCCCCOC(=O)C1CCCN1C(C)=O (centres unmarked) [Pro2, N-acetyl proline dodecyl ester]",92.4 ± 2.82,1.08 ± 0.09,7.16 ± 0.79,98.1 ± 4.49,–,–
CCCCCCCCCCCCOC(=O)C1CCCN1C(=O)CC (centres unmarked) [Pro3],84.4 ± 1.5,1.54 ± 0.28,11.18 ± 2.39,74.4 ± 1.75,–,–
CCCCCCCCCCCCOC(=O)C1CCCN1C(=O)CCC (centres unmarked) [Pro4],63.9 ± 1.91,1.71 ± 0.31,12.70 ± 2.71,54.6 ± 1.11,fourfold,3
